Patent publication US20180055887A1, “METHOD FOR PREPARING INDUCED MESENCHYMAL STEM CELLS AND IMPROVING MESENCHYMAL STEM CELL'S CHARACTERS AND ITS APPLICATIONS” (ACADEMIA SINICA, priority 2016, published 2018)
Marks after values point to notes of the source that are not given here.

Tests used:
[1] = test system: Human primary neonatal foreskin fibroblasts (CRL2097); assay: Generation of iMSCs from fibroblasts by chemical treatment, flow cytometry for SSEA-4 and PODXL; type: cell-based; conditions: for iMSC generation from fibroblasts (in words): SSEA-4+PODXL+ population by flow cytometry, without growth factors; for Percentage of cells with both SSEA-4 and PODXL: CRL2097 fibroblasts, DMEM only 0.1%
Procedure: For iMSC dedifferentiation from human fibroblasts, primary fibroblasts were cultured in DMEM-HG for 2 days. The culture medium was then replaced with medium containing different chemical(s), with or without growth factor(s), for 3 to 21 days (FIG. 1A). Cells were cultured at 37° C. under 5% CO2.
Cells were then analyzed by FACSCanto (Becton Dickinson, Franklin Lakes, N.J., USA). SSEA-4 and PODXL double positive cells were isolated using a cell sorter (FACS Aria II, BD Biosciences).
After culture, the cells treated by the chemical cocktail were examined by flow cytometry.
Human primary neonatal foreskin fibroblasts (CRL2097) were cultured in DMEM medium only (as a negative control) or in DMEM medium containing a GSK3β inhibitor (CHIR99021, 3 μM) or a protein kinase C inhibitor (Go6983, 5 μM), and the percentage of the cells converted to iMSCs, co-expressing SSEA-4 and PODXL, were determined by flow cytometer.
Additional combinations of chemicals were analyzed for their activities to generate iMSCs from fibroblasts and the percentage of the cells converted to iMSCs, co-expressing SSEA-4 and PODXL, were determined by flow cytometer.

[2] = test system: BMMSCs; assay: Improvement of multipotency of MSCs: percentage of MSC markers SSEA-4 and PODXL by flow cytometer; type: cell-based, human; conditions: treatment of BMMSCs
Procedure: For cell surface marker analysis, BMMSCs, iMSCs, and fibroblasts were incubated with FITC-conjugated anti-human SSEA-4 (clone MC-813-70; eBiosciences, San Diego, Calif., USA) and PE-conjugated anti-human PODXL (clone B34D1.3; eBiosciences) antibodies. Cells were then analyzed by FACSCanto (Becton Dickinson, Franklin Lakes, N.J., USA). SSEA-4 and PODXL double positive cells were isolated using a cell sorter (FACS Aria II, BD Biosciences).
BBMSCs were cultured in conversion medium for 6 days, without chemical treatment (control) or with treatment of chemical cocktails (6C+3GF), including six chemical kinase(6C) inhibitors i.e. a p38 inhibitor (5B202190), a JNK inhibitor (SP600125), a protein kinase C inhibitor (Go6983), a ROCK inhibitor (Y-27632), a ERK1/2 inhibitor (PD0325901) and a GSK3β inhibitor (CHIR99021) and three growth factors i.e. a leukemia inhibitory factor (LIF), a basic fibroblast growth factor (bFGF) and a transforming growth factor-β (TGF-β). In other conditions, MSCs were cultured with chemicals cocktails (six, seven or eight chemicals) without the growth factors. The percentages of the MSC markers, SSEA-4 and PODXL, were determined by flow cytometer. Six chemicals (6C) includes a p38 inhibitor (SB202190), a JNK inhibitor (SP600125), a protein kinase C inhibitor (Go6983), a ROCK inhibitor (Y-27632), a ERK1/2 inhibitor (PD0325901) and a GSK3β inhibitor (CHIR99021). […]

[3] = Table 2: other factors or a combination, tested in the same manner

SMILES	Percentage of cells with both SSEA-4 and PODXL [1, 3] [%]	further results
COc1ccc2c(c1)c(C1=C(c3c[nH]c4ccccc34)C(=O)NC1=O)cn2CCCN(C)C [Go6983, 3-{1-[3-(Dimethylamino)propyl]-5-methoxy-1H-indol-3-yl}-4-(1H-indol-3-yl)-1H-pyrrole-2,5-dione]	–	iMSC generation from fibroblasts (in words) [1]: effective in iMSC generation; expression of functional markers of BMSCs (in words) [2]: can effectively increase the expression of functional markers
CC(C)N(CCCNC(=O)Nc1ccc(C(C)(C)C)cc1)C[C@H]1O[C@@H](n2cc(Br)c3c(N)ncnc32)[C@H](O)[C@@H]1O [SGC0946, 5-Bromo-7-(5-deoxy-5-{isopropyl[3-({[4-(2-methyl-2-propanyl)phenyl]carbamoyl}amino)propyl]amino}-β-D-ribofuranosyl)-7H-pyrrolo[2,3-d]pyrimidin-4-amine]	0.20	–
CCCC(=O)[O-].[Na+] [Sodium butyrate]	0.70	–
COc1ccc(C2CNC(=O)C2)cc1OC1CCCC1 (stereo not shown) [Rolipram]	0.30	–
N[C@@H](CCC(=O)N[C@@H](CS)C(=O)NCC(=O)O)C(=O)O [GSH, Glutathione]	0.40	–
c1cc(-c2cnn3cc(-c4ccc(OCCN5CCCCC5)cc4)cnc23)ccn1 [Dorsomorphin, 6-[4-(2-Piperidin-1-yl-ethoxy)-phenyl]-3-pyridin-4-yl-pyrrazolo[1,5,-α]pyrimidine]	0.10	Percentage of cells with both SSEA-4 and PODXL ([1]; Table 2: other factors or a combination, tested in the same manner, listed as dorsomorphin): 0.1%
CC(=O)N[C@@H](CS)C(=O)O [NAC, N-Acetylcysteine]	0.50	–
Cc1cccc(-c2n[nH]cc2-c2ccc3ncccc3n2)n1 [Repsox, 2-[3-(6-Methyl-2-pyridinyl)-1H-pyrazol-4-yl]-1,5-naphthyridine]	0.40	–
Oc1ccc(-c2nc(-c3ccncc3)c(-c3ccc(F)cc3)[nH]2)cc1 [SB202190]	0.10	–
O=C1c2ccccc2-c2n[nH]c3cccc1c23 [SP600125]	0.20	–
CO[C@H]1C[C@@H]2CC[C@@H](C)[C@@](O)(O2)C(=O)C(=O)N2CCCC[C@H]2C(=O)O[C@H]([C@H](C)C[C@@H]2CC[C@@H](O)[C@H](OC)C2)CC(=O)[C@H](C)/C=C(\C)[C@@H](O)[C@@H](OC)C(=O)[C@H](C)C[C@H](C)/C=C/C=C/C=C/1C [Rapamycin, (1R,9S,12S,15R,16E,18R,19R,21R,23S,24E,26E,28E,30S,32S,35R)-1,18-Dihydroxy-12-{(2R)-1-[(1S,3R,4R)-4-hydroxy-3-methoxycyclohexyl]-2-propanyl}-19,30-dimethoxy-15,17,21,23,29,35-hexamethyl-11,36-dioxa-4-azatricyclo[30.3.1.0~4,9~]hexatriaconta-16,24,26,28-tetraene-2,3,10,14,20-pentone]	0.20	–
Cc1cnc(-c2cnc(NCCNc3ccc(C#N)cn3)nc2-c2ccc(Cl)cc2Cl)[nH]1 [CHIR99021, 6-[(2-{[4-(2,4-Dichlorophenyl)-5-(5-methyl-1H-imidazol-2-yl)-2-pyrimidinyl]amino}ethyl)amino]nicotinonitrile]	–	iMSC generation from fibroblasts (in words) [1]: effective in iMSC generation; Percentage of cells with both SSEA-4 and PODXL ([1]; Table 1: single factor in DMEM medium, CHIR99021 3 μM, Go6983 5 μM): 0.9%; Percentage of cells with both SSEA-4 and PODXL ([1]; Table 1: single factor in DMEM medium, CHIR99021 3 μM, Go6983 5 μM, listed as CHIR99201): 0.90%*
COc1cc2nc(N3CCCN(C)CC3)nc(NC3CCN(Cc4ccccc4)CC3)c2cc1OC [BIX01294]	0.30	–
C[S+]([O-])c1ccc(-c2nc(-c3ccc(F)cc3)c(-c3ccncc3)[nH]2)cc1 (stereo not shown) [SB203580]	0.10	–
O=c1cc(N2CCOCC2)oc2c(-c3ccccc3)cccc12 [LY294002]	0.80	–
NC(=O)c1ccc(-c2nc(-c3ccc4c(c3)OCO4)c(-c3ccccn3)[nH]2)cc1 [SB431542]	0.40	–
O=C(NCc1ccccc1)c1csc(Nc2ccncn2)n1 [Thiazovivin]	0.80	Percentage of cells with both SSEA-4 and PODXL ([1]; Table 2: other factors or a combination, tested in the same manner, listed as thiazovivin): 0.8%
C[C@@H](N)[C@H]1CC[C@H](C(=O)Nc2ccncc2)CC1 [Y27632]	0.50	–
Cc1nc(Nc2ncc(C(=O)Nc3c(C)cccc3Cl)s2)cc(N2CCN(CCO)CC2)n1 [Dasatinib]	0.40	–
O=C1O[C@H]([C@@H](O)CO)C(O)=C1O [VitC, ascorbic acid]	0.60	–
O=S(=O)(c1cccc2cnccc12)N1CCCNCC1 [Fasudil]	0.20	–
CCCC(CCC)C(=O)O [VPA, 2-Propylpentanoic acid]	0.2	–
O=C(NOC[C@@H](O)CO)c1ccc(F)c(F)c1Nc1ccc(I)cc1F [PD0325901, N-[(2S)-2,3-Dihydroxypropoxy]-3,4-difluoro-2-[(2-fluoro-4-iodophenyl)amino]benzamide]	0.40	–
